Tests used:
IGF1R-Sal tumors = assay: IGF-1R Sal Tumor Model; format: in vivo; conditions: orally, qd × 4 days, nude mice bearing IGF1R-Sal tumors
Protocol: P. IGF-1R Sal Tumor Model
A salivary gland adenocarcinoma that developed spontaneously in a transgenic mouse (MCI-19) was excised and cut into fragments of about 20 mg. Tumor fragments were implanted s.c. into the ventral thoracic region of a group of six female, athymic BALB/c nu/nu mice (Harley Sprague-Dawley, Indianapolis, Ind.), using a 13-gauge trocar. Once established, the salivary gland-derived tumor line was designated IGF1R-Sal and was propagated as a tumor xenograft in nude mice. Tumors were passaged every 2 weeks, at which time the tumor reached f500 to 1,000 mm3 in size. For treatment studies, nude micebearing IGF1R-Sal tumors of about 100 mm3 in size were sorted into groups of five for treatment with vehicle (80% polyethylene glycol 400 in water) alone or the test article. Compounds were administered either on a bid schedule (oral doses 8 hours apart) or on a once a day schedule orally (qd) for 4 consecutive days. Tumors were measured at the start and end of treatment. Activity was measured as % tumor growth inhibition (% TGI). The % TGI was determined using the following formula (Ct−Tt)/(Ct−Co) where Ct is defined as the median tumor size of the control group at the end of treatment, Co is defined as the median tumor size of the control group at the start of treatment, and Tt is defined as the median tumor size of the treated group at the end of treatment.

IGF1-receptor = IGF1-receptor (Homo sapiens, UniProt P08069); assay: IGF1-Receptor Tyrosine Kinase Assay; format: biochemical; conditions: in vitro kinase; ATP 25 μM; read-out: IGF1R kinase IC50
Protocol: D. IGF1-Receptor Tyrosine Kinase Assay
The assays were performed in U-bottom 384-well plates. The final assay volume was 30 μl prepared from 15 μl additions of enzyme and substrates (fluoresceinated IGF1R substrate peptide and ATP) and test compounds in assay buffer (100 mM HEPES pH 7.4, 10 mM MnCl2, 0.015% Brij35 and 4 mM DTT). The reaction was initiated by the combination of IGF1-receptor with substrates and test compounds. The reaction was incubated at room temperature for 60 min. and terminated by adding 30 μl of 35 mM EDTA to each sample. The reaction mixture was analyzed on the Caliper LabChip 3000 by electrophoretic separation of the fluorescent substrate and phosphorylated product. Inhibition data were calculated by comparison to no enzyme control reactions for 100% inhibition and vehicle-only reactions for 0% inhibition. The final concentration of reagents in the assays is ATP, 25 μM; FL-peptide, 1.5 μM; IGF1-Receptor, 14 nM; and DMSO, 1.6%. Dose response curves were generated to determine the concentration required inhibiting 50% of kinase activity (IC50). Compounds were dissolved at 10 mM in dimethylsulfoxide (DMSO) and evaluated at eleven concentrations, each in duplicate. IC50 values were derived by non-linear regression analysis.

Sequence of IGF1-receptor (P08069 31-1367): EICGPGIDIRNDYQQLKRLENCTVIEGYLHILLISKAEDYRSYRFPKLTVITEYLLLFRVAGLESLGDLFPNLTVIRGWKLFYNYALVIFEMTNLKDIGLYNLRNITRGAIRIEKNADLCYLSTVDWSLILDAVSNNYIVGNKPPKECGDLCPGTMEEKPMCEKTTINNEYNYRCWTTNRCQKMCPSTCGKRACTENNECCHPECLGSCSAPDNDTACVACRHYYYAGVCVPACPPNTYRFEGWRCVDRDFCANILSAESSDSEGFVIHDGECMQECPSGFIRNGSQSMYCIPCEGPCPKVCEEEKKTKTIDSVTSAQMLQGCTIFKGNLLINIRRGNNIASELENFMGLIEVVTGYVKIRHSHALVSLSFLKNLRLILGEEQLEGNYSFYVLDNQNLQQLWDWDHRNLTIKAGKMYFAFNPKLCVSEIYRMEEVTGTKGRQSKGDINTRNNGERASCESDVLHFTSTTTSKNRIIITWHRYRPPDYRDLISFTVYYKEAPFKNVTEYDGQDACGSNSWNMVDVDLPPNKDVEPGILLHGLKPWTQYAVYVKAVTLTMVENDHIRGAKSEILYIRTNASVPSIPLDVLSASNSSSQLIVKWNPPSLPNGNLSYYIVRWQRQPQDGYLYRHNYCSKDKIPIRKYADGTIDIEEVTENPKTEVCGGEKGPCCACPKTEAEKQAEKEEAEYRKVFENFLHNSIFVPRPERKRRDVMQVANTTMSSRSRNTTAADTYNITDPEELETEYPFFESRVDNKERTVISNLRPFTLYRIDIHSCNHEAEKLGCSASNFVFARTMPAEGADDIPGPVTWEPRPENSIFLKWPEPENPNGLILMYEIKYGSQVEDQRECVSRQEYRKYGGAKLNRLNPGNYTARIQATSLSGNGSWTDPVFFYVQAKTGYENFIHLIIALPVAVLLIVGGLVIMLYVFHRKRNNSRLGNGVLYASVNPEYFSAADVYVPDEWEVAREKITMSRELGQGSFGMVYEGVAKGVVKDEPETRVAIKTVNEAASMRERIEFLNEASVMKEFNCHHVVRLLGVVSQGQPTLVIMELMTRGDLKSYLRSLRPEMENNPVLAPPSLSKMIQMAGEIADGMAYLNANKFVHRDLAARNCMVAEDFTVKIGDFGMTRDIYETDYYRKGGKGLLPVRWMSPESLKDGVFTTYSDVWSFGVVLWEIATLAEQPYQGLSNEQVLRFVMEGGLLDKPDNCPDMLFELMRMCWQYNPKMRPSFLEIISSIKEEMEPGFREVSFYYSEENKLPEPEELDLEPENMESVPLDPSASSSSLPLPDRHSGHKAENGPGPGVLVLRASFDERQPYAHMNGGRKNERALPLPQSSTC

IC50 (IGF1-receptor) [nM] | SMILES | other results
– | O=C(Nc1cnccn1)[C@@H]1C[C@@H](F)CN1c1nc(Nc2cc(C3CC3)n[nH]2)nc(N2CCOCC2)n1 [Example 65, (2S,4R)-1-(4-(3-Cyclopropyl-1H-pyrazol-5-ylamino)-6-morpholino-1,3,5-triazin-2-yl)-4-fluoro-N-(pyrazin-2-yl)pyrrolidine-2-carboxamide] | % TGI (3.13 mpk) (IGF1R-Sal tumors; 3.13 mpk): 80%
7 | CN1CCN(c2nc(Nc3cc(C4CC4)n[nH]3)nc(N3CC(F)(F)C[C@H]3C(=O)Nc3cnccn3)n2)CC1 [Example 117, (S)-1-(4-(3-Cyclopropyl-1H-pyrazol-5-ylamino)-6-(4-methylpiperazin-1-yl)-1,3,5-triazin-2-yl)-4,4-difluoro-N-(pyrazin-2-yl)pyrrolidine-2-carboxamide] | –
56 | O=C(N[C@H]1CCCN(c2nc(Nc3cc(C4CC4)n[nH]3)nc(N3C[C@H](F)C[C@H]3C(=O)Nc3cnccn3)n2)C1)C1CC1 [Example 72, (2S,4R)-1-(4-((S)-3-(Cyclopropanecarboxamido)piperidin-1-yl)-6-(3-cyclopropyl-1H-pyrazol-5-ylamino)-1,3,5-triazin-2-yl)-4-fluoro-N-(pyrazin-2-yl)pyrrolidine-2-carboxamide] | –
3 | CO[C@H]1C[C@@H](C(=O)Nc2cnccn2)N(c2nc(Nc3cc(C4CC4)[nH]n3)nc(N3CCSCC3)n2)C1 [Example 34, (2S,4S)-1-(4-(5-Cyclopropyl-1H-pyrazol-3-ylamino)-6-thiomorpholino-1,3,5-triazin-2-yl)-4-methoxy-N-(pyrazin-2-yl)pyrrolidine-2-carboxamide] | –
108 | COCCN1CCN(c2nc(Nc3cc(C4CC4)[nH]n3)nc(N3C[C@@H](O)C[C@@]3(C)C(=O)Nc3nccs3)n2)CC1 [Example 103, (2S,4S)-1-(4-(5-Cyclopropyl-1H-pyrazol-3-ylamino)-6-(4-(2-methoxyethyl)piperazin-1-yl)-1,3,5-triazin-2-yl)-4-hydroxy-2-methyl-N-(thiazol-2-yl)pyrrolidine-2-carboxamide] | –
7 | CO[C@H]1C[C@@H](C(=O)Nc2cnccn2)N(c2nc(NCCN(C)C)nc(Nc3cc(C4CC4)n[nH]3)n2)C1 [Example 27, (2S,4S)-1-(4-(3-Cyclopropyl-1H-pyrazol-5-ylamino)-6-(2-(dimethylamino)ethylamino)-1,3,5-triazin-2-yl)-4-methoxy-N-(pyrazin-2-yl)pyrrolidine-2-carboxamide] | –
– | CN1CCN(c2nc(Nc3cc(C4CC4)n[nH]3)nc(N3C[C@H](F)C[C@H]3C(=O)Nc3cnccn3)n2)CC1 [Example 68, (2S,4R)-1-(4-(3-Cyclopropyl-1H-pyrazol-5-ylamino)-6-(4-methylpiperazin-1-yl)-1,3,5-triazin-2-yl)-4-fluoro-N-(pyrazin-2-yl)pyrrolidine-2-carboxamide] | % TGI (6.25 mpk) (IGF1R-Sal tumors; 6.25 mpk): 7%
3 | CO[C@H]1C[C@@H](C(=O)Nc2cnccn2)N(c2nc(Nc3cc(C4CC4)n[nH]3)nc(N3CCN(S(C)(=O)=O)CC3)n2)C1 [Example 46, (2S,4S)-1-(4-(3-Cyclopropyl-1H-pyrazol-5-ylamino)-6-(4-(methylsulfonyl)piperazin-1-yl)-1,3,5-triazin-2-yl)-4-methoxy-N-(pyrazin-2-yl)pyrrolidine-2-carboxamide] | –
– | COCCN1CCN(c2nc(Nc3cc(C4CC4)n[nH]3)nc(N3C[C@H](F)C[C@H]3C(=O)Nc3ncns3)n2)CC1 [Example 84, (2S,4R)-1-(4-(3-Cyclopropyl-1H-pyrazol-5-ylamino)-6-(4-(2-methoxyethyl)piperazin-1-yl)-1,3,5-triazin-2-yl)-4-fluoro-N-(1,2,4-thiadiazol-5-yl)pyrrolidine-2-carboxamide] | % TGI (50 mpk) (IGF1R-Sal tumors; 50 mpk): 25%
89 | Cc1cnc(NC(=O)[C@]2(C)C[C@H](O)CN2c2nc(Nc3cc(C4CC4)[nH]n3)nc(N3CCOCC3)n2)s1 [Example 105, (2S,4S)-1-(4-(5-Cyclopropyl-1H-pyrazol-3-ylamino)-6-morpholino-1,3,5-triazin-2-yl)-4-hydroxy-2-methyl-N-(5-methylthiazol-2-yl)pyrrolidine-2-carboxamide] | –
3 | COCCN1CCN(c2nc(Nc3cc(C4CC4)n[nH]3)nc(N3C[C@@H](OC)C[C@H]3C(=O)Nc3cnccn3)n2)CC1 [Example 25, (2S,4S)-1-(4-(3-Cyclopropyl-1H-pyrazol-5-ylamino)-6-(4-(2-methoxyethyl)piperazin-1-yl)-1,3,5-triazin-2-yl)-4-methoxy-N-(pyrazin-2-yl)pyrrolidine-2-carboxamide] | –
7 | O=C(Nc1ncns1)[C@@H]1C[C@@H](F)CN1c1nc(Nc2cc(C3CC3)n[nH]2)nc(N2CCOCC2)n1 [Example 82, (2S,4R)-1-(4-(3-Cyclopropyl-1H-pyrazol-5-ylamino)-6-morpholino-1,3,5-triazin-2-yl)-4-fluoro-N-(1,2,4-thiadiazol-5-yl)pyrrolidine-2-carboxamide] | –
7 | CN1CCN(c2nc(Nc3cc(C4CC4)n[nH]3)nc(N3[C@H](C(=O)Nc4cnccn4)C[C@@H]4C[C@@H]43)n2)CC1 [Example 122, (1S,3S,5S)-2-(4-(3-Cyclopropyl-1H-pyrazol-5-ylamino)-6-(4-methylpiperazin-1-yl)-1,3,5-triazin-2-yl)-N-(pyrazin-2-yl)-2-azabicyclo[3.1.0]hexane-3-carboxamide] | –
7 | COc1nc(Nc2cc(C3CC3)[nH]n2)nc(N2C[C@@H](OC)C[C@H]2C(=O)Nc2cnccn2)n1 [Example 20, (2S,4S)-1-(4-(5-Cyclopropyl-1H-pyrazol-3-ylamino)-6-methoxy-1,3,5-triazin-2-yl)-4-methoxy-N-(pyrazin-2-yl)pyrrolidine-2-carboxamide] | –
2 | CO[C@H]1C[C@@H](C(=O)Nc2ccc(F)nc2)N(c2nc(Nc3cc(C4CC4)n[nH]3)nc(N3CCOCC3)n2)C1 [Example 62, (2S,4S)-1-(4-(3-Cyclopropyl-1H-pyrazol-5-ylamino)-6-morpholino-1,3,5-triazin-2-yl)-N-(6-fluoropyridin-3-yl)-4-methoxypyrrolidine-2-carboxamide] | –
2 | COCCN1CCN(c2nc(Nc3cc(C4CC4)n[nH]3)nc(N3C[C@@H](O)C[C@H]3C(=O)Nc3cnccn3)n2)CC1 [Example 87, (2S,4S)-1-(4-(3-Cyclopropyl-1H-pyrazol-5-ylamino)-6-(4-(2-methoxyethyl)piperazin-1-yl)-1,3,5-triazin-2-yl)-4-hydroxy-N-(pyrazin-2-yl)pyrrolidine-2-carboxamide] | –
3 | O=C(Nc1cnccn1)[C@@H]1CC(F)(F)CN1c1nc(Nc2cc(C3CC3)n[nH]2)nc(N2CCN(CCO)CC2)n1 [Example 119, (S)-1-(4-(3-Cyclopropyl-1H-pyrazol-5-ylamino)-6-(4-(2-hydroxyethyl)piperazin-1-yl)-1,3,5-triazin-2-yl)-4,4-difluoro-N-(pyrazin-2-yl)pyrrolidine-2-carboxamide] | –
44 | CN1CCN(c2nc(Nc3cc(C4CC4)[nH]n3)nc(N3C[C@@H](O)C[C@@]3(C)C(=O)Nc3nccs3)n2)CC1 [Example 102, (2S,4S)-1-(4-(5-Cyclopropyl-1H-pyrazol-3-ylamino)-6-(4-methylpiperazin-1-yl)-1,3,5-triazin-2-yl)-4-hydroxy-2-methyl-N-(thiazol-2-yl)pyrrolidine-2-carboxamide] | –
43 | CN1CC2CC1CN2c1nc(Nc2cc(C3CC3)[nH]n2)nc(N2C[C@@H](O)C[C@@]2(C)C(=O)Nc2nccs2)n1 (stereo partly drawn) [Example 104, (2S,4S)-1-(4-(5-Cyclopropyl-1H-pyrazol-3-ylamino)-6-(5-methyl-2,5-diazabicyclo[2.2.1]heptan-2-yl)-1,3,5-triazin-2-yl)-4-hydroxy-2-methyl-N-(thiazol-2-yl)pyrrolidine-2-carboxamide] | –
95 | CO[C@H]1C[C@@H](C(=O)Nc2cnccn2)N(c2nc(Nc3cc(C4CC4)[nH]n3)nc(-n3nc(C4CC4)cc3N)n2)C1 [Example 58, (2S,4S)-1-(4-(5-Amino-3-cyclopropyl-1H-pyrazol-1-yl)-6-(5-cyclopropyl-1H-pyrazol-3-ylamino)-1,3,5-triazin-2-yl)-4-methoxy-N-(pyrazin-2-yl)pyrrolidine-2-carboxamide] | –
7 | CO[C@H]1C[C@@H](C(=O)N[C@@H]2CCCN(C)C2)N(c2nc(Nc3cc(C4CC4)[nH]n3)nc(N3CCOCC3)n2)C1 [Example 113, (2S,4S)-1-(4-(5-Cyclopropyl-1H-pyrazol-3-ylamino)-6-morpholino-1,3,5-triazin-2-yl)-4-methoxy-N—((R)-1-methylpiperidin-3-yl)pyrrolidine-2-carboxamide] | –
